Laboratory results as given in publication PMC2629123, “Trypanosoma cruzi CYP51 Inhibitor Derived from a Mycobacterium tuberculosis Screen Hit” (PLoS Neglected Tropical Diseases, 2009).
Like-named read-outs stand apart in the source and are kept apart here.

Legend:
CYP51Tb = molecular target: T1, CYP51Tb (Trypanosoma brucei brucei, UniProt Q385E8, L2A); assay: biochemical; assay type: binding; conditions: spectral titration, room temperature, pH 7.5
T1 construct: His8 (C); made in house; host or cells: E. coli HMS174(DE3) co-transformed with pGro7 (GroES/GroEL)

[1] = system: T. cruzi intracellular amastigotes; assay: IC50: T. cruzi intracellular amastigotes in J774 macrophages, parasites/cell; assay type: cell-based, Trypanosoma cruzi; conditions: 52 h; for mean number of parasites/cell: untreated 3.57±0.5 P/cell
Experimental: To determine IC50, mouse J774 macrophages were irradiated (1000 rads) to deter growth and plated onto 12-well tissue culture plates. Cells were infected with 10^5 tissue culture trypomastigotes of the Y strain of T. cruzi for 2 h at 37°C, as described above. […] All treatments were performed in triplicate to ensure statistical validity. Cultures were then fixed in 4% paraformaldehyde in PBS for 2 h at room temperature and stained with DAPI (10 nM) in PBS. One hundred cells and their intracellular parasites were quantified as previously described to estimate the mean number of parasites/cell. Mean P/cell data were plotted against compound concentration to estimate the IC50.

[2] = system: T. cruzi Y strain trypomastigotes; assay: T. cruzi assay: infection of J774 mouse macrophages, long-term treatment and cure; assay type: cell-based, Trypanosoma cruzi; conditions: 10 µM, infected J774 macrophages, treatment up to 27 days then 13–15 days without inhibitor
Experimental: Irradiated (1000 rads) J774 mouse macrophages were plated in 12-well tissue culture plates 24 h prior to infection with 10^5 T. cruzi Y strain trypomastigotes for 2 h at 37°C. […] Untreated controls, controls treated with the inhibitor K11777 (10 µM),[31], and uninfected macrophage controls were also included. All cultures were in triplicate and medium was replaced every 48 h. Treatment with CYP51 inhibitors continued for up to 27 days. Subsequently, treated cultures were maintained without inhibitor for an additional 13–15 days to confirm inhibitor effectiveness and cure of infected cells. Cultures were monitored daily by contrast phase microscopy to determine presence of T. cruzi infected cells and free infectious trypomastigotes (Table 2).

T. brucei = T. brucei assay, viability by ATP-bioluminescence (CellTiter-Glo); assay type: cell-based, Trypanosoma brucei; conditions: highest tested concentration 10 µM, 48 h
Experimental: Trypanosomes were grown in complete HMI-9 medium containing 10% FBS, 10% Serum Plus medium (Sigma Inc. St. Louis Mo. USA) and 1× penicillin/streptomycin. Trypanosomes were diluted to 1.0×10^5/ml in complete HMI-9 medium. Diluted trypanosomes were aliquoted in Greiner sterile 96-well flat white opaque culture plates using a WellMate cell dispenser (Matrix Tech., Hudson, NH, USA). Compounds 8 and 10 were serially diluted in Me2SO. Trypanosomes were incubated with the compounds for 48 h at 37°C with 5% CO2 before monitoring viability. Trypanosomes were then lysed in the wells by adding 50 µl of CellTiter-GloTM (Promega Inc., Madison, WI, USA). Lysed trypanosomes were placed on an orbital shaker at room temperature for 2 min. The resulting ATP-bioluminescence of the trypanosomes in the 96-well plates was measured at room temperature using an Analyst HT plate reader (Molecular Devices, Sunnyvale, CA, USA).

CYP51Tc = molecular target: T2, CYP51Tc (Trypanosoma cruzi, UniProt Q7Z1V1); assay: biochemical; assay type: binding
T2 construct: His6 (C); made in house; host or cells: Escherichia coli HMS174(DE3)

[3] = spectral titration, room temperature, pH 7.5, read-out: KD, μM CYP51Tc

T1 sequence (Q385E8 whole entry L2A): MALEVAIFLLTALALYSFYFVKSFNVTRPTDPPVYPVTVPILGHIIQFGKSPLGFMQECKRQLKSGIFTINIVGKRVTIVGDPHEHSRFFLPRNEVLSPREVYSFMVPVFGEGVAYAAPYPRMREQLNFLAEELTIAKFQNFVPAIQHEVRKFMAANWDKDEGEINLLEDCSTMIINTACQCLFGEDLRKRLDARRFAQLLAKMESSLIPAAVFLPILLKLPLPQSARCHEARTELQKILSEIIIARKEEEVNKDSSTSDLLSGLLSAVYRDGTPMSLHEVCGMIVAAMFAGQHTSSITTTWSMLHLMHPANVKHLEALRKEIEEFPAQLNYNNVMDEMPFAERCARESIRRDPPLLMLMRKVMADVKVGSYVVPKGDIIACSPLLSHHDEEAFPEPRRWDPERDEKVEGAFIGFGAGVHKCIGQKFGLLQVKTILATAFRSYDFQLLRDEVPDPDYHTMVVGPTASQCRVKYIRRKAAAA
T2 sequence (Q7Z1V1 21-481, looked up, natural form): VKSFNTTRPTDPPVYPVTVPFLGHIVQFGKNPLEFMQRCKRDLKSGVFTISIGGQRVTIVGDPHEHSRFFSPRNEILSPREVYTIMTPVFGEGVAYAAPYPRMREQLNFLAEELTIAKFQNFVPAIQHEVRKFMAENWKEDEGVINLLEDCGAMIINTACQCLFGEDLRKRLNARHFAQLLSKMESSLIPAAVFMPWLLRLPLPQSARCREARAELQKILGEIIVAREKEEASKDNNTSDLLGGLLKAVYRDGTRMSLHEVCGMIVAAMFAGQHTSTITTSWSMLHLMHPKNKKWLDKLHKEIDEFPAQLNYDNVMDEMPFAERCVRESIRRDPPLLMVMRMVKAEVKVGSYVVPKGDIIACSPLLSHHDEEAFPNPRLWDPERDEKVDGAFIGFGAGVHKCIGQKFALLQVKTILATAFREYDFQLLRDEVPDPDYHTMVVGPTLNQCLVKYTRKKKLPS

| SMILES | Kd (CYP51Tb) | mean number of parasites/cell ([1]; 10 µM) | Host cell survival [2] | T. cruzi development [2] | inhibitory effects against cultured T. brucei (T. brucei) | KD, μM CYP51Tb (CYP51Tb) | Kd (CYP51Tc; [3]) | other results |
| --- | --- | --- | --- | --- | --- | --- | --- | --- |
| CSCC[C@H](NC(=O)[C@H]1CC[C@@H](C)CC1)C(=O)Nc1ccncc1 [Compound 9, cis-4-methyl-N-[(1S)-3-(methylsulfanyl)-1-(pyridin-4-ylcarbamoyl)propyl]cyclohexanecarboxamide] | 6.5 ± 0.6 µM |  |  |  |  |  |  |  |
| CC1CCC(C(=O)NC(Cc2c[nH]c3ccccc23)C(=O)Nc2ccncc2)CC1 (centres unmarked) [Compound 10] |  | 0.25±0.01 P/cell | 40 days | No | neither compound 8 nor 10 had any inhibitory effects | no binding |  | inhibition at 10 µM ([1]; Trypanosoma cruzi, 10 µM, read-out: growth inhibition): 100%; IC50 ([1]; Trypanosoma cruzi, Y strain, read-out: IC50 for T. cruzi intracellular growth inhibition): ~1 nM; T. cruzi development ([2]; listed as compound 10): No parasites survived; inhibitory effects against cultured T. brucei (T. brucei; listed as compound 10): inactive |
| Cn1c(=O)c2c(ncn2CC(=O)Nc2ccncc2)n(C)c1=O [Compound 7] | > 100 µM |  |  |  |  |  | 20.7 ± 0.8 µM |  |
| Cc1ccc(S(=O)(=O)NCCCOC(=O)Nc2ccncc2)cc1 [Compound 8, 3-{[(4-methylphenyl)sulfonyl]amino}propylpyridin-4-ylcarbamate] |  | 1.22±0.1 P/cell | 5 days | 5 days | neither compound 8 nor 10 had any inhibitory effects | no binding |  | Kd (CYP51Tc; KD (affinity toward CYP51Tc), spectral assays): 0.16 µM; Kd (CYP51Tc; KD, μM CYP51Tc, spectral titration, room temperature, pH 7.5): 0.16 ± 0.03 µM |
| CCC(C(=O)Nc1ccncc1)c1ccccc1 (stereo not drawn) [EBPA, α-ethyl-N-4-pyridinyl-benzeneacetamide, reference compound] |  |  |  |  |  |  | 0.48 ± 0.08 µM |  |
